The values that follow are results of earlier work, collected in patent US20090181849A1, “Agricultural chemical containing top dressing composition and process for use thereof” (priority 2007, published 2009).

The test system of one series is S. homoeocarpa. Conditions: bent grass, blend of Cato:Crenshaw (50:50); disease pressure high.
The next series concerns curvularia fungus. As to conditions: Kentucky bluegrass plants growing in sand; sprayed and fertilized in separate applications; not on bent grass or Bermuda grass plants.

For the molecule `CSC(=O)c1cccc2nnsc12` [ASM, acibenzolar-5-methyl], in the series with S. homoeocarpa, the “reduction of number of S. homoeocarpa infection centers” value is on record as 38%. In the case of `O=[N+]([O-])NC1=NCCN1Cc1ccc(Cl)nc1` [imidacloprid], the “control of curvularia fungus” value in the series on curvularia fungus is listed as “successful control”.
